In brackets after ≈: the same amount, converted by molar mass. Where two headings read alike, the source gives them in different places.
Tests used:
Format in all cases: cell-based
[1] = LDH cytotoxic activity assay, HT29; conditions: human, HT29 cells
Experimental: (§1) The cell lines were cultured in a cell medium (Dulbecco’s modified eagle’s or RPMI 1640) enriched with 10% (v/v) fetal bovine serum and 2% (v/v) Penicillin-Streptomycin (10,000 U/mL). First, old medium was removed out of the flask when the cells reached approximately 80% confluence. Next, cells were taken from the flasks surface using trypsin-EDTA solution and then subjected to centrifugation. Following, the cell pellet was suspended with fresh media and was inoculated into wells.
(§2) Approximately 5 × 10^3 cells in 100 μL were placed into 96-well plates as triplicates and treated with 25, 50, 75, and 100 μg/mL concentrations of test compounds at 37 °C with 5% CO2 for 24 h. LDH activity was obtained by determining absorbance at 492–630 nm using a microplate reader.

E. coli ATCC 25922 = assay: Microdilution MIC assay; conditions: Escherichia coli, ATCC25922; E. coli ATCC 25922, 24 h at 35 °C
Experimental: (§3) MIC values of the compounds against bacterial strains were determined on the basis of a microwell dilution method. […] […]. Growth of microorganisms was determined visually after incubation for 24 h at 35 °C. The lowest concentration at which there was no visible growth (turbidity) was taken as the MIC.

[2] = test system: P. aeruginosa AGME ATCC 27853; assay: Microdilution MIC assay; conditions: Pseudomonas aeruginosa, ATCC27853; P. aeruginosa AGME ATCC 27853, 24 h at 35 °C
Experimental: as §3

[3] = test system: S. aureus MSSA ATCC 29213; assay: Microdilution MIC assay; conditions: S. aureus MSSA ATCC 29213, 24 h at 35 °C
Experimental: as §3

[4] = test system: S. aureus MRSA ATCC 46300; assay: Microdilution MIC assay; conditions: Staphylococcus aureus; S. aureus MRSA ATCC 46300, 24 h at 35 °C; read-out: MIC
Experimental: as §3

E. coli ESBL ATCC 35218 = assay: Microdilution MIC assay; conditions: Escherichia coli, ATCC35218; E. coli ESBL ATCC 35218, 24 h at 35 °C
Experimental: as §3

S. mutans ATCC 35668 = assay: Microdilution MIC assay; conditions: Streptococcus mutans, ATCC35668, 24 h, S. mutans ATCC 35668, 24 h at 35 °C; read-out: MIC
Experimental: as §3

[5] = LDH cytotoxic activity assay, HeLa; conditions: human, HeLa cells
Experimental: as §1, §2

[6] = LDH cytotoxic activity assay, C6; conditions: rat, C6 glioma cells
Experimental: as §1, §2

MCF7 = assay: cells; conditions: Homo sapiens
Experimental: as §1
(§4) A cell suspension containing approximately 1 × 10^4 cells in 100 μL was seeded into the wells of 96-well culture plates. […]. The final volume of the wells was set to 200 μL by medium. Cell proliferation assay was evaluated by MTT (yellow tetrazolium MTT (3-(4,5-dimethylthiazolyl-2)-2,5-diphenyltetrazolium bromide) methods. Briefly, an MTT stock solution (5 mg of MTT/mL of distilled water) was filtered and kept at −20 °C until use. The cells were exposed to an MTT reagent (consisting of one parts of MTT stock solutions and nine parts of fresh RPMI 1640 without phenol red) for 4 h to form MTT formazan dye followed by the dye dissolved in DMSO with Sorenson’s buffer for 30 min at room temperature and then the plate was measured at 560 nm, with 690 nm as a reference interval, using a microplate reader. Each experiment was repeated at least three times for each cell line.
(§5) IC50 value is a concentration that inhibits half of the cells in vitro. The half maximal inhibitory concentration (IC50) of the test and control compounds was calculated using XLfit5 or excel spreadsheet and represent in μM at 95% confidence intervals. The proliferation assay results were expressed as the percent inhibition according to the following formula: % Inhibition = [1 - (Absorbance of Treatments /Absorbance of DMSO) × 100]. Three dose response parameters (GI50, TGI, LC50) were calculated according to the following formulas using the absorbance measurements of time zero (Tz), control growth (C), and test growth in the presence of drug (Ti). Growth inhibition of 50% (GI50) was calculated from [(Ti-Tz)/(C-Tz)] × 100 = 50, which is the drug concentration resulting in a 50% reduction in the net growth increase in control cells during the drug incubation. The drug concentration resulting in total growth inhibition (TGI) was calculated from Ti = Tz. The LC50 indicating a net loss of cells following treatment was calculated from [(Ti-Tz)/Tz] × 100 = −50.

A549 = assay: cells; conditions: Homo sapiens
Experimental: as §1, §4, §5

HT29 = assay: cells; conditions: Homo sapiens
Experimental: as §1, §4, §5

C6 (Rat brain glioma) = assay: cells; conditions: Rattus norvegicus
Experimental: as §1, §4, §5

Hep3B = assay: cells; conditions: Homo sapiens
Experimental: as §1, §4, §5

HeLa = assay: cells; conditions: Homo sapiens
Experimental: as §1, §4, §5

normal FL cells = assay: cells; conditions: FL normal cells, MTT
Experimental: as §1, §4, §5

in vitro = conditions: human, LC50
Experimental: as §1, §4, §5

- MIC (E. coli ATCC 25922): > 1000 µg/mL
- MIC [2]: > 1000 µg/mL
- MIC [3]: 125 µg/mL (≈ 294 µM)
- MIC ([3]; Staphylococcus aureus, 24 h, read-out: MIC): 62.5 to 125 µg/mL (≈ 147 to 294 µM)
- MIC [4]: 125 µg/mL (≈ 294 µM)
- MIC (E. coli ESBL ATCC 35218): > 1000 µg/mL
- MIC (S. mutans ATCC 35668): 1000 µg/mL (≈ 2360 µM)
- GI50 (MCF7; MCF7, MTT): 1.69 µg/mL (≈ 3.98 µM)
- IC50 (MCF7; MCF7, MTT, read-out: IC50): > 500 µg/mL
- GI50 (A549; A549, MTT): 11.6 µg/mL (≈ 27.3 µM)
- IC50 (A549; A549, MTT, read-out: IC50): > 500 µg/mL
- GI50 (HT29; HT-29, HT29, MTT): 2.46 µg/mL (≈ 5.8 µM)
- IC50 (HT29; HT-29, HT29, MTT, read-out: IC50): 453 µg/mL (≈ 1070 µM)
- GI50 (C6 (Rat brain glioma); C6, MTT): 9.17 µg/mL (≈ 21.6 µM)
- IC50 (C6 (Rat brain glioma); C6, MTT, read-out: IC50): 49.7 µg/mL (≈ 117 µM)
- GI50 (Hep3B; MTT): 3.85 µg/mL (≈ 9.07 µM)
- IC50 (Hep3B; MTT, read-out: IC50): > 500 µg/mL
- GI50 (HeLa; MTT): > 500 µg/mL
- IC50 (HeLa; MTT, read-out: IC50): > 500 µg/mL
SMILES: Cc1ccccc1-c1cc(-c2cccnc2)nc(N[C@@H]2O[C@H](CO)[C@@H](O)[C@H](O)[C@H]2O)n1 [Compound 2, N-[4-(2-methylphenyl)-6-pyridin-3-ylpyrimidin-2-yl]-β-D-glucopyranosylamine]
- cytotoxicity at 24 h, 25 μg/mL ([1]; HT29, 25 μg/mL): 27.7%
- cytotoxicity at 24 h, 50 μg/mL ([1]; HT29, 50 μg/mL): 44.8%
- cytotoxicity at 24 h, 75 μg/mL ([1]; HT29, 75 μg/mL): 72.7%
- cytotoxicity at 24 h, 100 μg/mL ([1]; HT29, 100 μg/mL): 94.6%
- cytotoxicity at 24 h, 25 μg/mL ([5]; 25 μg/mL): 30.5%
- cytotoxicity at 24 h, 50 μg/mL ([5]; 50 μg/mL): 47.2%
- cytotoxicity at 24 h, 75 μg/mL ([5]; 75 μg/mL): 49.7%
- cytotoxicity at 24 h, 100 μg/mL ([5]; 100 μg/mL): 72.1%
- cytotoxicity at 24 h, 25 μg/mL ([6]; C6, 25 μg/mL): 30.8%
- cytotoxicity at 24 h, 50 μg/mL ([6]; C6, 50 μg/mL): 49.8%
- cytotoxicity at 24 h, 75 μg/mL ([6]; C6, 75 μg/mL): 72.7%
- cytotoxicity at 24 h, 100 μg/mL ([6]; C6, 100 μg/mL): 99.8%
- LC50 (concentration causing 50% net cell loss relative to time zero) (MCF7; MCF7, read-out: LC50): > 500 µg/mL
- IC (total growth inhibition) (MCF7; MCF7, MTT, read-out: TGI): > 500 µg/mL
- LC50 (concentration causing 50% net cell loss) (A549; A549, read-out: LC50): > 500 µg/mL
- IC (total growth inhibition) (A549; A549, MTT, read-out: TGI): > 500 µg/mL
- LC50 (concentration giving 50% net cell loss relative to time zero) (HT29; HT-29, read-out: LC50): > 500 µg/mL
- IC (total growth inhibition) (HT29; HT-29, HT29, MTT, read-out: TGI): > 500 µg/mL
- LC50 (concentration giving 50% net cell loss relative to time zero) (C6 (Rat brain glioma); read-out: LC50): 217 µg/mL (≈ 510 µM)
- IC (total growth inhibition) (C6 (Rat brain glioma); C6, MTT, read-out: TGI): 31.6 µg/mL
- IC (total growth inhibition) (Hep3B; MTT, read-out: TGI): > 500 µg/mL
- LC50 (concentration causing 50% net cell loss relative to time zero) (Hep3B; read-out: LC50): > 500 µg/mL
- IC (total growth inhibition) (HeLa; MTT, read-out: TGI): > 500 µg/mL
- LC50 (concentration causing 50% net cell loss) (HeLa; read-out: LC50): > 500 µg/mL
- GI50 (normal FL cells): 3.68 µg/mL (≈ 8.67 µM)
- IC50 (normal FL cells; read-out: IC50): 457 µg/mL (≈ 1080 µM)
- IC (total growth inhibition) (normal FL cells; read-out: TGI): > 500 µg/mL
- LC50 (concentration causing 50% net cell loss) (in vitro): > 500 µg/mL

Reference: publication PMC10387993, “New pyrimidine-N-β-D-glucosides: synthesis, biological evaluation, and molecular docking investigations” (Turkish Journal of Chemistry, 2023)
